Source: patent US11999715B2, “ASK1 inhibiting agents” (BIOGEN MA INC., priority 2018, dated 2024)

Columns and labels:
[1] = molecular target: T1, ASK1 T838 auto phosphorylation (Homo sapiens, UniProt Q99683); assay: ASK1 (AUTO PHOS T838) assay, MSD format, in HEK-293T cells transfected with ASK1-V5; format: cell-based; settings: ASK1 T838 auto phosphorylation in HEK-293T cells, 1 hr compound incubation; class symbols
T1 sequence (Q99683 1-1374): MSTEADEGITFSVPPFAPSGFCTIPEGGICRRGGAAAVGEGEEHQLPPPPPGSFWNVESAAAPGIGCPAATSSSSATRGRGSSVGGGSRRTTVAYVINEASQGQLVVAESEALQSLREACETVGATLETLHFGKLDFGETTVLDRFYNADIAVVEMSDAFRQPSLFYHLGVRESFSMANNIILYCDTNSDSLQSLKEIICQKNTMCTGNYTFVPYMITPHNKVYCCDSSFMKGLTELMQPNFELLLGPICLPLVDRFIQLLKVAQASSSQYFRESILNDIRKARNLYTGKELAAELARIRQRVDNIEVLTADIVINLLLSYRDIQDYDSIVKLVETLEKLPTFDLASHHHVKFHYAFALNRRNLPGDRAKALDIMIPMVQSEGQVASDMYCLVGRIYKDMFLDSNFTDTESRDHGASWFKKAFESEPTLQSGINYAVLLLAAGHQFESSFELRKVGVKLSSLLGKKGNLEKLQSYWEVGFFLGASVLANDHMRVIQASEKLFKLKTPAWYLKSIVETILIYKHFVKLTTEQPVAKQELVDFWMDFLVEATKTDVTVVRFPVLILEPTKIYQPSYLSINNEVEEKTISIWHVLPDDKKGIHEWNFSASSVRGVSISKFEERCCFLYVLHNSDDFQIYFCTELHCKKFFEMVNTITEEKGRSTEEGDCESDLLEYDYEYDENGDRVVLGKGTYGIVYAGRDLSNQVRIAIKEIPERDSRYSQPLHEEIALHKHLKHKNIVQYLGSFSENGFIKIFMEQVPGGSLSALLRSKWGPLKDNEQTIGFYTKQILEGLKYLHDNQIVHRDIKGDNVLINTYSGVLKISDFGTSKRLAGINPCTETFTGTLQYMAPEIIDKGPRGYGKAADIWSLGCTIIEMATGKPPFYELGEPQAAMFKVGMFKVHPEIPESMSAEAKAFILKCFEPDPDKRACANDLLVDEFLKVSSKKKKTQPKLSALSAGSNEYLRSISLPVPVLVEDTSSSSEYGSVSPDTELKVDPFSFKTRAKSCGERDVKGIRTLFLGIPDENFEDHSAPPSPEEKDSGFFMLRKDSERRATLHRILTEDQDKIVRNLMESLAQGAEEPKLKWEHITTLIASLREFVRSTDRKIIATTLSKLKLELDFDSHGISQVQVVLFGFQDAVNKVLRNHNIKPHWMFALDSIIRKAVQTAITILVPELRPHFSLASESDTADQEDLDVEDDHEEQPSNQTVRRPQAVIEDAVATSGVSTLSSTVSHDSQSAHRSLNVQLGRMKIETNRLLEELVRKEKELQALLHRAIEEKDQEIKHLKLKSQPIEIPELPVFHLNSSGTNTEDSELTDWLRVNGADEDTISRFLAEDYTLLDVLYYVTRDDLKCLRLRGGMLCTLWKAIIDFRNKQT
Method: Example 112: Brief Description of ASK1(AUTO PHOS T838) Assay ASK1 T838 auto phosphorylation was measured in HEK-293T cells using MSD assay format. HEK 293T cells were seeded in 15 cm plates at a density of 18 million cells and 20 mL DMEM with 10% FBS, Pen/Strep media. The plates were incubated at 37° C. overnight. Media on plates was changed to OPTI-MEM, serum free media and cells were transfected with 9 μg of ASK1-V5 tagged full length plasmid using Lipofectamine 2000 (Invitrogen) and the plates were incubated at 37° C. overnight. Cells were trypsinized, counted on Nexcellometer and plated into 96 well tissue culture plates with 100,000 cells/well and 200 μL media. Cells were incubated for 4 hr at 37° C. then ASK1 compounds were added using a HP 300e. Compounds were tested at 20 μM with 3 fold, 10 point dilution points then incubated for 1 hr at 37° C. A lysis buffer (Cell Signaling) was prepared with protease and phosphatase inhibitor and maintained at 4° C. until use. Media from cells was discarded and 120 μL of cold lysis buffer was added to the cells, the plate was shaken 4° C. for 1 hr. Lysate was mixed using Apricot liquid handler; aspirating up and down 16 times at high speed using 50 μL volume. […] Plates were then incubated on a plate shaker overnight at 4° C. Plates were washed 3× with MSD wash buffer and 50 μL of rabbit anti-pASK1 T838 antibody was added to the wells and incubated for 2 hr at room temperature on a plate shaker. Plates were then washed and 50 μL of goat anti-rabbit sulfa-tag (1:500 dilution) was added to wells, and incubated for 1 hr at room temperature on a plate shaker. […] Plates were immediately read on a MSD Instrument Reader where chemoluminescence signal was measured. Data was analyzed using Graph Pad or Genedata, the data was normalized and plotted, % activity versus log of compound concentration. The IC50 values were obtained from a 4 parameter fit. The compounds described herein were tested for in the above cell-based assay.

ASK1/MAP3K5 = molecular target: T2, ASK1/MAP3K5 (Homo sapiens, UniProt Q99683); assay: ASK1/MAP3K5 kinase assay by Reaction Biology Corp. (headed ASK1 TR-FRET Assay); format: biochemical; settings: 20 μM myelin basic protein, 10 μM ATP
T2 sequence (Q99683 1-1374): T1 sequence (Q99683 1-1374)
Method: Example 111: Brief Description of ASK1 TR-FRET Assay The protein kinase inhibitory activity of the compounds described herein were tested using the ASK1/MAP3K5 assay by Reaction Biology Corp. (Malvern, PA). The assay procedure follows (and is also available on the Reaction Biology Corp. website). Base Reaction Buffer: 20 mM Hepes (pH 7.5), 10 mM MgCl2, 1 mM EGTA, 0.02% Brij35, 0.02 mg/mL BSA, 0.1 mM Na3VO4, 2 mM DTT, 1% DMSO; Substrate: 20 μM of myelin basic protein (MBP) and 10 μM ATP; Protein kinase: ASK1/MAP3K5. Reaction Procedure: • 1. Prepare indicated substrate in freshly prepared Base Reaction Buffer. • 2. Deliver any required cofactors to the substrate solution. • 3. Deliver indicated kinase into the substrate solution and gently mix. • 4. Deliver compounds in DMSO into the kinase reaction mixture by Acoustic; technology (Echo550; nanoliter range), incubate for 20 minutes at room temperature. • 5. Deliver ^33P-ATP (specific activity 10 μCi/μL) into the reaction mixture to initiate the reaction. • 6. Incubate kinase reaction for 2 hours at room temperature. • 7. Reactions are spotted onto P81 ion exchange paper. • 8. Detect kinase activity by filter-binding method.

IC50 [1]	IC50 (ASK1/MAP3K5; class symbols)	IC50 (ASK1/MAP3K5; class given in words)	SMILES
≤ 1000 nM	≤ 100 nM	–	COc1nn(C)cc1C(=O)Nc1cccc(-c2nncn2C(C)C(F)F)n1 (stereo not shown) [Example 26, N-(6-(4-(1,1-Difluoropropan-2-yl)-4H-1,2,4-triazol-3-yl)pyridin-2-yl)-3-methoxy-1-methyl-1H-pyrazole-4-carboxamide]
≤ 1000 nM	≤ 100 nM	–	COc1nn(C)cc1C(=O)Nc1cccc(-c2nncn2[C@@H](C)C(C)C)n1 [Example 29, (S)-3-Methoxy-1-methyl-N-(6-(4-(3-methylbutan-2-yl)-4H-1,2,4-triazol-3-yl)pyridin-2-yl)-1H-pyrazole-4-carboxamide]
≤ 1000 nM	≤ 100 nM	–	COc1nn(C)cc1C(=O)Nc1cccc(-c2nncn2C2CCC2(F)F)n1 (stereo not shown) [Example 30, N-(6-(4-(2,2-Difluorocyclobutyl)-4H-1,2,4-triazol-3-yl)pyridin-2-yl)-3-methoxy-1-methyl-1H-pyrazole-4-carboxamide]
1000 to 10000 nM	1000 to 10000 nM	–	COc1nn(C)cc1C(=O)Nc1cccc(-c2nncn2[C@@H]2CCCNC2)n1 [Example 39, (R)-3-Methoxy-1-methyl-N-(6-(4-(piperidin-3-yl)-4H-1,2,4-triazol-3-yl)pyridin-2-yl)-1H-pyrazole-4-carboxamide]
≤ 1000 nM	≤ 100 nM	–	COc1nn(CC(C)C)cc1C(=O)Nc1cccc(-c2nncn2C(C)C)n1 [Example 42, 1-Isobutyl-N-(6-(4-isopropyl-4H-1,2,4-triazol-3-yl)pyridin-2-yl)-3-methoxy-1H-pyrazole-4-carboxamide]
≤ 1000 nM	≤ 100 nM	–	COc1nn(CCN(C)C)cc1C(=O)Nc1cccc(-c2nncn2C(C)C)n1 [Example 45, 1-(2-(Dimethylamino)ethyl)-N-(6-(4-isopropyl-4H-1,2,4-triazol-3-yl)pyridin-2-yl)-3-methoxy-1H-pyrazole-4-carboxamide]
≤ 1000 nM	≤ 100 nM	–	COc1nn(CCN2CCOCC2)cc1C(=O)Nc1cccc(-c2nncn2C(C)C)n1 [Example 46, N-(6-(4-Isopropyl-4H-1,2,4-triazol-3-yl)pyridin-2-yl)-3-methoxy-1-(2-morpholinoethyl)-1H-pyrazole-4-carboxamide]
> 10000 nM	–	≥ 10000 nM	COc1nn(C)cc1C(=O)Nc1cccc(-c2nncn2C2(C)COC2)n1 [Example 49, 3-Methoxy-1-methyl-N-(6-(4-(3-methyloxetan-3-yl)-4H-1,2,4-triazol-3-yl)pyridin-2-yl)-1H-pyrazole-4-carboxamide]
≤ 1000 nM	≤ 100 nM	–	COCCn1cc(C(=O)Nc2cccc(-c3nncn3C3CC3)n2)c(OC)n1 [Example 54, N-(6-(4-Cyclopropyl-4H-1,2,4-triazol-3-yl)pyridin-2-yl)-3-methoxy-1-(2-methoxyethyl)-1H-pyrazole-4-carboxamide]

Continued, compound first:

SMILES	IC50 [1]	IC50 (ASK1/MAP3K5; class symbols)	IC50 (ASK1/MAP3K5; class given in words)
COc1nn(C)cc1C(=O)Nc1cccc(-c2nncn2C2CCN(C(=O)OC(C)(C)C)CC2)n1 [Example 38, tert-Butyl 4-(3-(6-(3-methoxy-1-methyl-1H-pyrazole-4-carboxamido)pyridin-2-yl)-4H-1,2,4-triazol-4-yl)piperidine-1-carboxylate]	≤ 1000 nM	100 to 1000 nM	–
COc1nn(CC(C)C)cc1C(=O)Nc1cccc(-c2nncn2C(C)C(F)(F)F)n1 (stereo not shown) [Example 43, 1-Isobutyl-3-methoxy-N-(6-(4-(1,1,1-trifluoropropan-2-yl)-4H-1,2,4-triazol-3-yl)pyridin-2-yl)-1H-pyrazole-4-carboxamide]	≤ 1000 nM	≤ 100 nM	–
COc1nn(Cc2ccccn2)cc1C(=O)Nc1cccc(-c2nncn2C(C)C)n1 [Example 44, N-(6-(4-Isopropyl-4H-1,2,4-triazol-3-yl)pyridin-2-yl)-3-methoxy-1-(pyridin-2-ylmethyl)-1H-pyrazole-4-carboxamide]	≤ 1000 nM	≤ 100 nM	–
COc1nn(CC2CC2)cc1C(=O)Nc1cccc(-c2nncn2[C@@H](C)C(F)(F)F)n1 [Example 48, (S)-1-(Cyclopropylmethyl)-3-methoxy-N-(6-(4-(1,1,1-trifluoropropan-2-yl)-4H-1,2,4-triazol-3-yl)pyridin-2-yl)-1H-pyrazole-4-carboxamide]	≤ 1000 nM	≤ 100 nM	–
CC(C)n1cnnc1-c1cccc(NC(=O)c2cn(CC3CC3)nc2C(F)F)n1 [Example 50, 1-(Cyclopropylmethyl)-3-(difluoromethyl)-N-(6-(4-isopropyl-4H-1,2,4-triazol-3-yl)pyridin-2-yl)-1H-pyrazole-4-carboxamide]	≤ 1000 nM	≤ 100 nM	–
COCCn1cc(C(=O)Nc2cccc(-c3nncn3[C@@H](C)C(F)(F)F)n2)c(C(F)F)n1 [Example 51, (S)-3-(Difluoromethyl)-1-(2-methoxyethyl)-N-(6-(4-(1,1,1-trifluoropropan-2-yl)-4H-1,2,4-triazol-3-yl)pyridin-2-yl)-1H-pyrazole-4-carboxamide]	≤ 1000 nM	≤ 100 nM	–
COCCn1cc(C(=O)Nc2cccc(-c3nncn3[C@@H](C)C(F)(F)F)n2)c(OC)n1 [Example 52, (S)-3-Methoxy-1-(2-methoxyethyl)-N-(6-(4-(1,1,1-trifluoropropan-2-yl)-4H-1,2,4-triazol-3-yl)pyridin-2-yl)-1H-pyrazole-4-carboxamide]	≤ 1000 nM	≤ 100 nM	–
COCCn1cc(C(=O)Nc2cccc(-c3nncn3[C@H](C)C(F)(F)F)n2)c(OC)n1 [Example 53, (R)-3-Methoxy-1-(2-methoxyethyl)-N-(6-(4-(1,1,1-trifluoropropan-2-yl)-4H-1,2,4-triazol-3-yl)pyridin-2-yl)-1H-pyrazole-4-carboxamide]	≤ 1000 nM	100 to 1000 nM	–
